Patent US20240132463A1, “SUBSTITUTED N-(2-(2,6-DIOXOPIPERIDIN-3-YL)-1,3-DIOXOISOINDOLIN-5-YL)ARYLSULFONAMIDE ANALOGS AS MODULATORS OF CEREBLON PROTEIN” (ST. JUDE CHILDREN'S RESEARCH HOSPITAL, INC., priority 2020, published 2024)

Columns and labels:
[1] = tested on: MV4-11 cells; test: MV-4-11 cell viability assay; type: cell-based, human; conditions: 72 hours, Cell Titer Glo
Method: MV-4-11 cell line was purchased from the American Type Culture Collection (ATCC, Manassas, VA). The cells were cultured according to recommendations in IMDM cell culture media (ATCC). Exponentially growing MV-4-11 cells were plated at 1,000 cells per well in Corning 8804BC white 384-well assay plates and incubated overnight at 37° C. in a humidified 5% CO2 incubator. Compounds were transferred to the assay plate from a dose-response plate using a Pintool on a Biomek FXP Laboratory Automation Workstation (Beckman Coulter). Cytotoxicity was determined following 72 hours of incubation using Promega Cell Titer Glo reagent according to the manufacturer's recommendation. Luminescence was measured on an Envision plate reader (Perkin-Elmer).
Compounds were screened in human cancer cell lines and each cell line was cultured in the complete medium recommended by the vendor and seeded in Corning 8804BC white 384-well assay plates at density of 1,000, 1,000, 1,000, 1,500 and 7,500 cells per well, for MV4-11, HD-MB03, MB004, MB002 and MHH-CALL4 cells respectively. After overnight incubation at 37° C. in a humidified 5% CO2 incubator, cells were treated with compounds in dose-response format using a Pintool on a Biomek FXP Laboratory Automation Workstation (Beckman Coulter). […] After 72 h incubation, cell proliferation was assessed using Cell Titer-Glo (CTG) luminescent cell viability assay (Promega) according to the manufacturer's instruction. Luminescence signal was measured using an Envision plate reader (Perkin-Elmer).

[2] = tested on: MDCKII-MDR1 cells; test: MDCKII-MDR1 permeability assay; type: in vitro ADME; conditions: permeability in MDCK-MDR1 cells
Method: High throughput […]1 permeability was performed in the Transwell® 0.4 μm polycarbonate membrane 96-well system with modified methods (Refs. 38-39). […]1 cells were maintained at 37° C. in a humidified incubator with an atmosphere of 5% CO2. The cells were cultured in 75 cm^2 flasks with Dulbecco's Modified Eagle's Medium (DMEM) containing 10% fetal bovine serum (FBS), 1% non-essential amino acids (NEAA), 100 units/ml of penicillin, and 100 μg/ml of streptomycin. The […]1 cells were seeded onto inserts at a density of 2×10^4 and 1×10^4 cells/insert separately. The medium in the wells was exchanged each other day, and the trans epithelial electrical resistance (TEER) value was measured using an epithelial volt-ohm meter (Millipore, Billerica, Massachusetts). […] For transport experiments, each cultured monolayer on the 96-well plate was washed twice with a transport buffer (HBSS/25 mM HEPES, pH 7.4). The permeability assay was initiated by the addition of each compound solution (10 μmol/L) into inserts (apical side, A) or receivers (basolateral side, B). The MDCKII-MDR1 cell monolayers were incubated for 1 hour at 37° C. Fractions were collected from receivers (if apical to basal permeability) or inserts (if basal to apical permeability), and concentrations were assessed by UPLC/MS (Waters; Milford, MA). All compounds were tested in triplicates. The A→B (or B→A) apparent permeability coefficients (Papp) of each compound were calculated using the equation, Papp=dQ/dt×1/AC0, where dQ/dt equals the flux of a drug across the monolayer, A equals the total insert well surface area, and C0 is the initial concentration of substrate in the donor compartment. The efflux ratio was determined by dividing the Papp in the B-A direction by the Papp in the A-B direction.

[3] = molecular target: GSPT1 (Homo sapiens (Human), UniProt P15170+Q96SW2); test: GSPT1 degradation by immunoblot in MV4-11 cells; type: cell-based; conditions: MV4-11 cells, 4 hours, at 100 nM
Sequence of GSPT1 (P15170 whole entry): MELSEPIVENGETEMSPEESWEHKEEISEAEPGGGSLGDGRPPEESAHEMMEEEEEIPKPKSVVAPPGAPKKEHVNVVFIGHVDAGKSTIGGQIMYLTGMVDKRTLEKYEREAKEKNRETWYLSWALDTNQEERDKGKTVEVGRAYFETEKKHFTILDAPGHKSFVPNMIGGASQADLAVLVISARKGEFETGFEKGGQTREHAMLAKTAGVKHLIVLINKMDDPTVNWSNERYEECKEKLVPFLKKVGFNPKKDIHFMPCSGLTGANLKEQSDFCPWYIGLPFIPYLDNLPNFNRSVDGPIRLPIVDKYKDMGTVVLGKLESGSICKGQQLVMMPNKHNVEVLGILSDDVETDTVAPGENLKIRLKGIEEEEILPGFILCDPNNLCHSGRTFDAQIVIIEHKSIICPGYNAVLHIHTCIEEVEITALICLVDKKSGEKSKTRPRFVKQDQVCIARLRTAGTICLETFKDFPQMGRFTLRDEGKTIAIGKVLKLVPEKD
Sequence of GSPT1 (Q96SW2 whole entry): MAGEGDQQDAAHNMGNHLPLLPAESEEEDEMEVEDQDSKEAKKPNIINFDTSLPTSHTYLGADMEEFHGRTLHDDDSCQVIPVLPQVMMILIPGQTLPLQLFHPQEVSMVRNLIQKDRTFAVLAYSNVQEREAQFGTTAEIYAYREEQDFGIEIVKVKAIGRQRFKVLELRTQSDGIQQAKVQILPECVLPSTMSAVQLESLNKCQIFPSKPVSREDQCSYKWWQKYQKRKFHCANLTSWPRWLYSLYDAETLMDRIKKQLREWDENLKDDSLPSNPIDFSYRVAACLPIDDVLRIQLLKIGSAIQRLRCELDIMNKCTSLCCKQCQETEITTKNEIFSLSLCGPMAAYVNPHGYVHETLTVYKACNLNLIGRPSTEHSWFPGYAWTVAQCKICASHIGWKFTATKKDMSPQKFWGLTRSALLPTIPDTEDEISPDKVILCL
Sequence of GSPT1 (Q16531 whole entry partner): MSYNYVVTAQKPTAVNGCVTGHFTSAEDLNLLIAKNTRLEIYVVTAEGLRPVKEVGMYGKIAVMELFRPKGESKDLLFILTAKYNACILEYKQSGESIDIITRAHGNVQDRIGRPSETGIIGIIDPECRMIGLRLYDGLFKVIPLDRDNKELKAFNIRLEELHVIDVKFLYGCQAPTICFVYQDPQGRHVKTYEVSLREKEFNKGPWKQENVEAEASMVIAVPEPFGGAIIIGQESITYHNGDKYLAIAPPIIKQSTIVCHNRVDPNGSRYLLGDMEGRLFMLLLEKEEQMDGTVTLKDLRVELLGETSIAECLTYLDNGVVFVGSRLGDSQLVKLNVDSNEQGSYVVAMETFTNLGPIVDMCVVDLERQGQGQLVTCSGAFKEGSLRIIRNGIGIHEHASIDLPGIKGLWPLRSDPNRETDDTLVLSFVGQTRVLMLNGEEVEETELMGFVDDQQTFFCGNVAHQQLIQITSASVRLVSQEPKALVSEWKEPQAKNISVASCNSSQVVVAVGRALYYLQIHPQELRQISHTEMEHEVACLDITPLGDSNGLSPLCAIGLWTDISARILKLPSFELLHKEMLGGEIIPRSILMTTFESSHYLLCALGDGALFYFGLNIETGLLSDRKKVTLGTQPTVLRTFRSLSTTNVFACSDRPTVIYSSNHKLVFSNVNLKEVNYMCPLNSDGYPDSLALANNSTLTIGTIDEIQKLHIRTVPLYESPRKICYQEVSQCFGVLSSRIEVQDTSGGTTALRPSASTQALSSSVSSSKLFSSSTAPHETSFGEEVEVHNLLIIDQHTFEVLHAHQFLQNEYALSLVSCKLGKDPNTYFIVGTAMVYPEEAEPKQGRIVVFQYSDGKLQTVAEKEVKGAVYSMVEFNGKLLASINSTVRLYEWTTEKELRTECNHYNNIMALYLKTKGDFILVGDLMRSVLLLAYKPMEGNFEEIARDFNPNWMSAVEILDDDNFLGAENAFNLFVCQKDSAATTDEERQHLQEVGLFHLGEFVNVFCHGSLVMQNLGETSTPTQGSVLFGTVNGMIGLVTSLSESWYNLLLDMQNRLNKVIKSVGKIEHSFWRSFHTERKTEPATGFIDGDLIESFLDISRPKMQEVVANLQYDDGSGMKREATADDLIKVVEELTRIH
Method: (§1) MV4-11 cells were seeded in 6-well plates (1×10^6 cells per well). After overnight incubation, the cells were treated with indicated concentrations for specific timepoints. […] After blocking the membrane with LI-COR TBS blocking buffer and incubation in primary antibody overnight, the corresponding protein signals were detected using IRDye secondary antibodies and Odyssey Imaging System. Image Studio Lite Ver 5.2 was used for blot quantification. […] IRDye® 800CW Goat anti-Mouse IgG Secondary Antibody and IRDye® 68ORD Goat anti-Rabbit IgG Secondary Antibody were used as secondary antibodies.

[4] = molecular target: IKZF1 (Homo sapiens (Human), UniProt Q13422+Q96SW2); test: IKZF1 degradation by immunoblot in MV4-11 cells; type: cell-based; conditions: MV4-11 cells
Method: as §1

[5] = Liver microsomes stability assay (mouse); type: in vitro ADME
Method: (§2) The liver microsome stability assay was carried as previously described (Refs. 40-41). NADPH regenerating agent solutions A and B and mouse liver microsomes (CD-1) were obtained from BD Gentest (Woburn, MA). Pooled human liver microsomes were purchased from XenoTech (Lenexa, KS). Ninety-six deep well plates were obtained from Midsci (St. Louis, MO). Ninety-six analytical plates were obtained from Corning Incorporated (Acton, MA). Sample preparation for microsomal stability was modified from Di's publications. A set of incubation times of 0, 15, 30, 60, 120, and 240 min were used. DMSO stock solutions of test compounds and verapamil (system control) were prepared at 10 mM concentration. Concentrated human or mouse liver microsomes (20 mg/mL protein concentration) and 0.5 M EDTA were diluted into 0.1 M potassium phosphate buffer (pH 7.4) and mixed well, followed by compounds solutions being spiked. This solution was mixed and 90 μL was transferred to 6 time points plates (each in triplicate wells). For the time 0 h plate, 3 fold (v:v) cold acetonitrile with internal standard (40 ng/ml warfarin) was added to each well, followed by addition of NADPH regenerating agent (mixing NADPH solutions A and B in PBS, pH7.4) and no incubation. […] The metabolic stability was evaluated via the half-life from least-squares fit of the multiple time points based on first-order kinetics.

[6] = Liver microsomes stability assay (human); type: in vitro ADME
Method: as §2

## O=C1CCC(N2C(=O)c3ccc(NS(=O)(=O)c4ccccc4OC(F)(F)F)cc3C2=O)C(=O)N1 (stereo not drawn) [Compound 1, N-(2-(2,6-dioxopiperidin-3-yl)-1,3-dioxoisoindolin-5-yl)-2-(trifluoromethoxy)benzenesulfonamide]
[1]
  MV4-11 EC50: among the most potent
[2]
  Papp: 2.3 ×10⁻⁶ cm/s
[3]
  GSPT1 protein degradation: 90%
[4]; 4 hours, any concentration tested
  IKZF1 degradation at 4 hours: did not significantly degrade IKZF1
[4]; treatment over 24 hours
  IKZF1 protein abundance: dose-dependent decrease
[5]
  intrinsic clearance Clint: 12 mL/min/kg
  liver microsomes t1/2: 4.7 h
[6]
  intrinsic clearance Clint: 4 mL/min/kg
  liver microsomes t1/2: 5.7 h
